In patent US20250040554A1, “NEW USES OF PHENMEDIPHAM AND HERBICIDAL COMBINATIONS COMPRISING PHENMEDIPHAM” (BAYER AKTIENGESELLSCHAFT, priority 2021, published 2025):

Tests used:
Format in all cases: in vivo
Details in all cases: 20 g/ha, 15 DAA
PANRA=Panicum ramosum = assay: Weed control field trial PANRA
Excerpt: (§1) The respective (combinations of) materials were applied to weed plants in the greenhouse or in the field at the respective growth stage indicated hereinafter for the different weed species mentioned below. The respective (combinations of) active ingredients were also applied to corn, cotton and soybean crop plants, and the selectivity (damage) in these crop plants rated (assessed).
(§2) Visual scoring of the damage to the trial plants took place after the time mentioned in the respective Table—indicated in number of Days After Application (DAA). Damage and development of all above-ground parts of the respective plants was recorded. Visual rating was done on a percentage scale in relation to the untreated control (100%=all plants dead; 50%=green plant biomass reduced by 50%, and 0%=no discernible difference=like control plot).
(§3) wherein • A, B=respective value in percent of active ingredient A at a dose rate of a g/ha, ingredient B at a dose rate of b g/ha • E^C=Expected value according to Colby (S. R. Colby; Weeds 15 (1967), 20-22) in % at a dose rate of a+b, each in g/ha • Δ=Difference (in %) between measured value E and expected value E^C (%) (measured value minus expected value)
(§4) After the harmful plants had emerged, they were treated, at the respective growth stage indicated, with the respective materials as indicated at a water application rate of 187 L/ha.
(§5) After the treatment (15 days after the treatment), the herbicidal activity of respective material was scored visually at the same time by comparing the differently treated plots with the untreated control plots. The score figures of the different plots were averaged.
(§6) The dose rates of herbicidal ingredients used in each case are indicated for the respective active ingredient and refer to the amount of active ingredient per hectare (g/ha).
(§7) The weed control activity of different (combinations of) herbicidal active ingredients was investigated in field trials for the following weed species: • AMARE=Amaranthus retroflexus • KCHSC=Kochia scoparia • PANRA=Panicum ramosum
(§8) The growth stage of AMARE was BBCH 19, the growth stage of KCHSC was BBCH 19 and the growth stage of PANRA was BBCH 22 at the time of application of the respective material.
(§9) Phenmedipham and the respective aroylcyclohexanedione herbicide were applied at varying application rates (Dose Rate) to the different species of weed plants. The results are shown in Tables 4a to 4d as the % control when assessed 15 days after application (DAA), respectively.
(§10) In all the trials of Tables 4a to 4d Mero® (rapeseed oil methyl ester) was added to the respective spray mixture in an amount corresponding to 1 L/ha for PMP, 1 L/ha for the respective aroylcyclohexanedione herbicide, and 2 L/ha for mixtures of PMP+the respective aroylcyclohexanedione herbicide.

[1] = test system: AMARE=Amaranthus retroflexus; assay: Weed control field trial AMARE
Excerpt: as §1, §2, §3, §4, §5, §6, §7, §8, §9, §10

KCHSC=Kochia scoparia = assay: Weed control field trial KCHSC
Excerpt: as §1, §2, §3, §4, §5, §6, §7, §8, §9, §10

Structure (SMILES) | % control PANRA (PANRA=Panicum ramosum) [%] | % control AMARE [1] [%] | % control KCHSC (KCHSC=Kochia scoparia) [%]
CS(=O)(=O)c1ccc(C(=O)C2C(=O)CCCC2=O)c(Cl)c1COCC(F)(F)F [TBT, 2-{2-chloro-4-(methylsulfonyl)-3-[(2,2,2-trifluoroethoxy)methyl]benzoyl}cyclohexane-1,3-dione] | 20 | 35 | 20
CS(=O)(=O)c1ccc(C(=O)C2C(=O)CCCC2=O)c(Cl)c1 [SCT, 2-[2-chloro-4-(methylsulfonyl)benzoyl]cyclohexane-1,3-dione] |  | 5 | 5
